Patent US8633200B2, “Inhibitors of human immunodeficiency virus replication” (priority 2010, dated 2014)
Like-named read-outs stand apart in the source and are kept apart here.

Tested on: recombinant NL-Rluc virus (NL4-3 with Renilla Luciferase gene) in MT-2 cells
Experiment: Inhibition of HIV replication (NL-Rluc luciferase reporter virus, MT-2 cells)
Format: cell-based, human immunodeficiency virus (HIV)
Settings: NL43, 120 h

`Cc1nc2c(-c3cccc(Cl)c3)c(-c3ccccc3)nn2c(-c2cc(F)c3c(c2C)CCCO3)c1[C@H](OC(C)(C)C)C(=O)O` [Example 140, (2S)-2-(tert-Butoxy)-2-(3-(3-chlorophenyl)-7-(8-fluoro-5-methylchroman-6-yl)-5-methyl-2-phenylpyrazolo[1,5-a]pyrimidin-6-yl)acetic acid] gave an EC50 (read-out: Activity) of 0.1 to 1 µM and an EC50 (read-out: EC50 μM) of 1 µM.

For `Cc1nc2c(-c3cccc(OCc4ccc(F)cc4)c3)c(-c3ccccc3)nn2c(-c2cc(F)c3c(c2C)CCCO3)c1[C@H](OC(C)(C)C)C(=O)O` [Example 141, (2S)-2-(tert-Butoxy)-2-(7-(8-fluoro-5-methylchroman-6-yl)-3-(3-((4-fluorobenzyl)oxy)phenyl)-5-methyl-2-phenylpyrazolo[1,5-a]pyrimidin-6-yl)acetic acid], the EC50 (read-out: Activity) was > 1 µM and the EC50 (read-out: EC50 μM) was 3.3 µM.

With `Cc1nc2c(-c3ccc4c(cnn4C)c3)c(-c3ccccc3)nn2c(-c2cc(F)c3c(c2C)CCCO3)c1[C@H](OC(C)(C)C)C(=O)O` [Example 142, (2S)-2-(tert-Butoxy)-2-(7-(8-fluoro-5-methylchroman-6-yl)-5-methyl-3-(1-methyl-1H-indazol-5-yl)-2-phenylpyrazolo[1,5-a]pyrimidin-6-yl)acetic acid] the EC50 (read-out: Activity) was 0.1 to 1 µM.

`Cc1nc2c(Cl)c(C)nn2c(-c2cc(F)c3c(c2C)CCCO3)c1C(OC(C)(C)C)C(=O)O` (centres unmarked) [Example 143, 2-(tert-Butoxy)-2-(3-chloro-7-(8-fluoro-5-methylchroman-6-yl)-2,5-dimethylpyrazolo[1,5-a]pyrimidin-6-yl)acetic acid] gave an EC50 (read-out: Activity) of 0.1 to 1 µM.

In the case of `Cc1nc2c(Cl)c(C)nn2c(-c2ccc3c(c2)CCCO3)c1C(OC(C)(C)C)C(=O)O` (centres unmarked) [Example 144, 2-(tert-Butoxy)2-(3-chloro-7-(chroman-6-yl)-2,5-dimethylpyrazolo[1,5-a]pyrimidin-6-yl)acetic acid], the EC50 (read-out: Activity) is reported as 0.1 to 1 µM.

For `Cc1nc2cc(-c3cccc(Cl)c3)nn2c(C(C)C)c1[C@H](OC(C)(C)C)C(=O)O` [Example 145, (S)-2-(tert-Butoxy)-2-(2-(3-chlorophenyl)-7-isopropyl-5-methylpyrazolo[1,5-a]pyrimidin-6-yl)acetic acid], the EC50 (read-out: Activity) was > 1 µM.

For `Cc1nc2cc(-c3cccc(Cl)c3)nn2c(CC(C)C)c1[C@H](OC(C)(C)C)C(=O)O` [Example 146, (S)-2-(tert-Butoxy)-2-(2-(3-chlorophenyl)-7-isobutyl-5-methylpyrazolo[1,5-a]pyrimidin-6-yl)acetic acid], the EC50 (read-out: Activity) was > 1 µM.

With `Cc1nc2cc(-c3cccc(Cl)c3)nn2c(-c2ccc(F)cc2)c1[C@H](OC(C)(C)C)C(=O)O` [Example 147, (S)-2-(tert-Butoxy)-2-(2-(3-chlorophenyl)-7-(4-fluorophenyl)-5-methylpyrazolo[1,5-a]pyrimidin-6-yl)acetic acid] the EC50 (read-out: Activity) was > 1 µM.

Work on `Cc1ccc(-c2c([C@H](OC(C)(C)C)C(=O)O)c(C)nc3cc(-c4cccc(Cl)c4)nn23)cc1` [Example 148, (S)-2-(tert-Butoxy)-2-(2-(3-chlorophenyl)-5-methyl-7-(p-tolyl)pyrazolo[1,5-a]pyrimidin-6-yl)acetic acid] yielded an EC50 (read-out: Activity) of 0.1 to 1 µM and an EC50 (read-out: EC50 μM) of 0.88 µM.

For `Cc1nc2cc(-c3cccc(Cl)c3)nn2c(C2CCCCC2)c1[C@H](OC(C)(C)C)C(=O)O` [Example 149, (S)-2-(tert-Butoxy)-2-(2-(3-chlorophenyl)-7-cyclohexyl-5-methylpyrazolo[1,5-a]pyrimidin-6-yl)acetic acid], the EC50 (read-out: Activity) was > 1 µM.

For `Cc1nc2cc(-c3ccc4c(c3)CCCC4)nn2c(-c2cc(F)c3c(c2C)CCCO3)c1[C@H](OC(C)(C)C)C(=O)O` [Example 150, (2S)-2-(tert-Butoxy)-2-(7-(8-fluoro-5-methylchroman-6-yl)-5-methyl-2-(5,6,7,8-tetrahydronaphthalen-2-yl)pyrazolo[1,5-a]pyrimidin-6-yl)acetic acid], the EC50 (read-out: Activity) was < 0.1 µM.

With `Cc1nc2cc(-c3ccc4c(c3)CCCC4)nn2c(-c2ccc3c(c2)CCCO3)c1[C@H](OC(C)(C)C)C(=O)O` [Example 151, (S)-2-(tert-Butoxy)-2-(7-(chroman-6-yl)-5-methyl-2-(5,6,7,8-tetrahydronaphthalen-2-yl)pyrazolo[1,5-a]pyrimidin-6-yl)acetic acid] the EC50 (read-out: Activity) was < 0.1 µM.

`Cc1nc2cc(-c3ccc4c(c3)CCCC4)nn2c(-c2ccc(F)cc2)c1[C@H](OC(C)(C)C)C(=O)O` [Example 152, (S)-2-(tert-Butoxy)-2-(7-(4-fluorophenyl)-5-methyl-2-(5,6,7,8-tetrahydronaphthalen-2-yl)pyrazolo[1,5-a]pyrimidin-6-yl)acetic acid] was tested, and the EC50 (read-out: Activity) was > 1 µM.

`Cc1ccc(-c2c([C@H](OC(C)(C)C)C(=O)O)c(C)nc3cc(-c4ccc5c(c4)CCCC5)nn23)cc1` [Example 153, (S)-2-(tert-Butoxy)-2-(5-methyl-2-(5,6,7,8-tetrahydronaphthalen-2-yl)-7-(p-tolyl)pyrazolo[1,5-a]pyrimidin-6-yl)acetic acid] showed an EC50 (read-out: Activity) of 0.1 to 1 µM.

`Cc1nc2cc(-c3ccc4c(c3)CCCC4)nn2c(-c2ccc3c4c(ccnc24)CCO3)c1[C@H](OC(C)(C)C)C(=O)O` [Example 154, (2S)-2-(tert-Butoxy)-2-(7-(2,3-dihydropyrano[4,3,2-de]quinolin-7-yl)-5-methyl-2-(5,6,7,8-tetrahydronaphthalen-2-yl)pyrazolo[1,5-a]pyrimidin-6-yl)acetic acid] was tested, and the EC50 (read-out: Activity) was > 1 µM.

`Cc1nc2cc(-c3ccc4c(c3)CCCC4)nn2c(-c2ccc(Cl)cc2)c1[C@H](OC(C)(C)C)C(=O)O` [Example 155, (S)-2-(tert-Butoxy)-2-(7-(4-chlorophenyl)-5-methyl-2-(5,6,7,8-tetrahydronaphthalen-2-yl)pyrazolo[1,5-a]pyrimidin-6-yl)acetic acid] showed an EC50 (read-out: Activity) of 0.1 to 1 µM.

With `Cc1ccc(-c2c([C@H](OC(C)(C)C)C(=O)O)c(C)nc3cc(-c4ccc5c(c4)CCCC5)nn23)c(Cl)c1` [Example 156, (2S)-2-(tert-Butoxy)-2-(7-(2-chloro-4-methylphenyl)-5-methyl-2-(5,6,7,8-tetrahydronaphthalen-2-yl)pyrazolo[1,5-a]pyrimidin-6-yl)acetic acid] the EC50 (read-out: Activity) was > 1 µM.

`Cc1nc2cc(-c3ccc4c(c3)CCCC4)nn2c(-c2ccc(Cl)cc2F)c1[C@H](OC(C)(C)C)C(=O)O` [Example 157, (2S)-2-(tert-Butoxy)-2-(7-(4-chloro-2-fluorophenyl)-5-methyl-2-(5,6,7,8-tetrahydronaphthalen-2-yl)pyrazolo[1,5-a]pyrimidin-6-yl)acetic acid] was tested, and the EC50 (read-out: Activity) was 0.1 to 1 µM.

Compound `Cc1nc2c(C)c(-c3cccc(Cl)c3)nn2c(-c2cc(F)c3c(c2C)CCCO3)c1[C@H](OC(C)(C)C)C(=O)O` [Example 158, (2S)-2-(tert-Butoxy)-2-(2-(3-chlorophenyl)-7-(8-fluoro-5-methylchroman-6-yl)-3,5-dimethylpyrazolo[1,5-a]pyrimidin-6-yl)acetic acid] has an EC50 (read-out: Activity) of 0.1 to 1 µM.

`Cc1nc2c(C)c(-c3cccc(-c4cc(F)c5c(c4C)CCCO5)c3)nn2c(-c2cc(F)c3c(c2C)CCCO3)c1[C@H](OC(C)(C)C)C(=O)O` [Example 159, (2S)-2-(tert-Butoxy)-2-(7-(8-fluoro-5-methylchroman-6-yl)-2-(3-(8-fluoro-5-methylchroman-6-yl)phenyl)-3,5-dimethylpyrazolo[1,5-a]pyrimidin-6-yl)acetic acid] was tested, and the EC50 (read-out: Activity) was < 0.1 µM.
